# Patent US20260250290A1 (BRISTOL-MYERS SQUIBB COMPANY, priority 2023, published 2026)
# Biological target: T1, SGK1 (Homo sapiens, UniProt O00141)
# T1 sequence (O00141 1-431): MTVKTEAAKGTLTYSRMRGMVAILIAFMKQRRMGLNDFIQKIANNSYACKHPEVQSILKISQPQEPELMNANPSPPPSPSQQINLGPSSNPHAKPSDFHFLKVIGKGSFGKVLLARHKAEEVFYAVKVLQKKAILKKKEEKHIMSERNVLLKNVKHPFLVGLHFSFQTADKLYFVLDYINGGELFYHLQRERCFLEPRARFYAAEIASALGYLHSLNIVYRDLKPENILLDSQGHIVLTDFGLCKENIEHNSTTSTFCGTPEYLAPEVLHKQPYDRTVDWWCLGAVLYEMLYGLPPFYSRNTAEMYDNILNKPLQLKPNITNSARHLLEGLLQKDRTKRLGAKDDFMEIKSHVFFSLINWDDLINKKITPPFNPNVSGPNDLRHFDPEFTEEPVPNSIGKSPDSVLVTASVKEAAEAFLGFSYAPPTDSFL
# Test: SGK1 inhibition Assay B (Echo mass spectrometry of phosphorylated peptide product)
# Assay type: biochemical
# Conditions: 60 min at room temperature
# Procedure: 20 μl of 2 nM SGK1 were added in 20 mM Hepes+10 mM MgCl2+0015% Brij-35+4 mM DTT+0.05 mg/ml BSA and the reaction incubated for 60 min at room temperature. The enzymatic reaction was quenched by addition 10 μl of 1% Formic Acid+150 nM Internal Standard: FITC-(Ahx)KKRNRR(pS)VA^—OH (final concentration). The plates are spun down at 3700 RPM for 10 minutes to remove all precipitate. Samples were loaded on to the Sciex Echo Mass Spec attached to a Sciex 6500 equipped with ESI and was used to analyze the phosphorylated peptide product. MRM transition of product and internal standard were monitored at m/z 755 to 937.5 and m/z 757.7 to 941.3 respectively. Peak area of analyte was normalized with internal standard.
# Dose response curves were generated to determine the concentration required for inhibiting 50% of the enzyme activity. Compounds were dissolved at 10 mM in dimethylsulfoxide (DMSO) and evaluated at eleven concentrations.
row,IC50,Structure (SMILES)
1,2 nM,"CC(C)N1CC2CC(Oc3cc(Cl)sc3C(=O)N[C@@H]3CCCN(c4cc(-c5ccc(-n6cnnn6)nc5)n5ncnc(N)c45)C3)CC2C1 (stereo partly drawn) [Example 959, N—((R)-1-(7-(6-(1H-tetrazol-1-yl)pyridin-3-yl)-4-aminopyrrolo[2,1-f][1,2,4]triazin-5-yl)piperidin-3-yl)-5-chloro-3-(((3aR,6aS)-2-isopropyloctahydrocyclopenta[c]pyrrol-5-yl)oxy) thiophene-2-carboxamide]"
2,1 nM,"Cc1nc(O[C@@H]2C[C@H]3CC[C@@H](C2)N3CCO)c(C(=O)N[C@@H]2CCCN(c3cc(-c4ccc(-n5cnnn5)c(F)c4)n4ncnc(N)c34)C2)s1 [Example 960, N—((R)-1-(4-amino-7-(3-fluoro-4-(1H-tetrazol-1-yl)phenyl)pyrrolo[2,1-f][1,2,4]triazin-5-yl)piperidin-3-yl)-4-(((1R,3s,5S)-8-(2-hydroxyethyl)-8-azabicyclo [3.2.1]octan-3-yl)oxy)-2-methylthiazole-5-carboxamide]"
3,5 nM,"Cc1nc(O[C@@H]2C[C@H]3CC[C@@H](C2)N3C)c(C(=O)N[C@@H]2CCCN(c3cc(-c4ccc5c(c4)CNC5=O)n4ncnc(N)c34)C2)s1 [Example 961, N-((R)-1-(4-amino-7-(1-oxoisoindolin-5-y1)pyrrolo[2,1-f][1,2,4]triazin-5-y1)piperidin-3-y1)-2-methy1-4-(((IR,3s,5S)-8-methyl-8-azabicyclo[3.2.1]octan-3-yl)oxy)thiazole-5-carboxamide]"
4,3 nM,"Cc1nc(O[C@@H]2C[C@H]3CC[C@@H](C2)N3C)c(C(=O)N[C@@H]2CCCN(c3cc(-c4ccc(-n5cnnn5)nc4)n4ncnc(N)c34)C2)s1 [Example 963, N-((R)-1-(7-(6-(1/-tetrazol-1-y1)pyridin-3-y1)-4-aminopyrrolo[2,1-1][1,2,4]triazin-5-y1)piperidin-3-y1)-2-methyl-4-(((IR,35,5S)-8-methy1-8-azabicyclo[3.2 1]octan-3-yl)oxy)thiazole-5-carboxamide]"
5,46 nM,"CCN1C2CCC1CC(Oc1nc(C)sc1C(=O)NC1CCCN(c3cc(-c4ccc(C#N)nc4)n4ncnc(N)c34)C1)C2 [Example 964, N-((R)-1-(4-amino-7-(6-cyanopyridin-3-yl)pyrrolo[2,1-f][1,2,4]triazin-5-y1)piperidin-3-y1)-4-(((1R,3s,5S)-8-ethyl-8-azabicyclo[3.2.]]octan-3-y])oxy)-2-methylthiazole-5-carboxamide]"
6,3 nM,"Cc1nc(OC2CC(C)(C)N(C)C(C)(C)C2)c(C(=O)N[C@@H]2CCCN(c3cc(-c4ccc(-n5cnnn5)c(F)c4)n4ncnc(N)c34)C2)s1 [Example 965, (R)—N-(1-(4-amino-7-(3-fluoro-4-(1H-tetrazol-1-yl)phenyl)pyrrolo[2,1-f][1,2,4]triazin-5-yl)piperidin-3-yl)-2-methyl-4-((1,2,2,6,6-pentamethylpiperidin-4-yl)oxy) thiazole-5-carboxamide]"
7,8 nM,"Cc1nc(O[C@@H]2C[C@H]3CC[C@@H](C2)N3)c(C(=O)N[C@@H]2CCCN(c3cc(-c4ccc5c(c4)OCCNC5=O)n4ncnc(N)c34)C2)s1 [Example 966, 4-(((1R,3s,5S)-8-azabicyclo [3.2.1]octan-3-yl)oxy)-N—((R)-1-(4-amino-7-(5-oxo-2,3,4,5-tetrahydrobenzo[f][1,4]oxazepin-8-yl)pyrrolo[2,1-f][1,2,4]triazin-5-yl)piperidin-3-yl)-2-methylthiazole-5-carboxamide]"
8,2 nM,"CC(C)N1[C@@H]2CCC[C@H]1C[C@H](Oc1cc(Cl)sc1C(=O)N[C@@H]1CCCN(c3cc(-c4cc(F)c(=O)n(CC(F)F)c4)n4ncnc(N)c34)C1)C2 [Example 968, N—((R)-1-(4-amino-7-(1-(2,2-difluoroethyl)-5-fluoro-6-oxo-1,6-dihydropyridin-3-yl)pyrrolo[2,1-f][1,2,4]triazin-5-yl)piperidin-3-yl)-5-chloro-3-(((1R,3s,5S)-9-isopropyl-9-azabicyclo[3.3.1]nonan-3-yl)oxy)thiophene-2-carboxamide]"
9,4 nM,"CC(C)S(=O)(=O)c1ccc(-c2cc(N3CCC[C@@H](NC(=O)c4sc(Cl)cc4O[C@@H]4C[C@H]5CC[C@@H](C4)N5C)C3)c3c(N)ncnn23)cn1 [Example 969, N-[(3R)-1-{4-amino-7-[6-(propane-2-sulfonyl)pyridin-3-yl]pyrrolo[2,1-f][1,2,4]triazin-5-yl}piperidin-3-yl]-5-chloro-3-{[(R,3R,5S)-8-methyl-8-azabicyclo[3.2.1]octan-3-yl]oxy}thiophene-2-carboxamide]"
10,5 nM,"CCN1[C@@H]2CCC[C@H]1C[C@H](Oc1nc(C)sc1C(=O)N[C@@H]1CCCN(c3cc(-c4ccc(=O)n(CC(F)F)n4)n4ncnc(N)c34)C1)C2 [Example 970, N—((R)-1-(4-amino-7-(1-(2,2-difluoroethyl)-6-oxo-1,6-dihydropyridazin-3-yl)pyrrolo[2,1-f][1,2,4]triazin-5-yl)piperidin-3-yl)-4-(((1R,3s,5S)-9-ethyl-9-azabicyclo[3.3.1]nonan-3-yl)oxy)-2-methylthiazole-5-carboxamide]"
11,1 nM,"COCCn1nc(-c2cc(N3CCC[C@@H](NC(=O)c4sc(Cl)cc4O[C@@H]4C[C@H]5CCC[C@@H](C4)N5C)C3)c3c(N)ncnn23)ccc1=O [Example 971, N—((R)-1-(4-Amino-7-(1-(2-methoxyethyl)-6-oxo-1,6-dihydropyridazin-3-yl)pyrrolo[2,1-f][1,2,4]triazin-5-yl)piperidin-3-yl)-5-chloro-3-(((1R,3s,5S)-9-methyl-9-azabicyclo[3.3.1]nonan-3-yl)oxy)thiophene-2-carboxamide]"
12,2 nM,"Nc1ncnn2c(-c3ccc(=O)n(CC(F)F)n3)cc(N3CCC[C@@H](NC(=O)c4sc(Cl)cc4O[C@@H]4C[C@H]5CCC[C@@H](C4)N5CCO)C3)c12 [Example 972, N—((R)-1-(4-amino-7-(1-(2,2-difluoroethyl)-6-oxo-1,6-dihydropyridazin-3-yl)pyrrolo[2,1-f][1,2,4]triazin-5-yl)piperidin-3-yl)-5-chloro-3-(((1R,3s,5S)-9-(2-hydroxyethyl)-9-azabicyclo[3.3.1]nonan-3-yl)oxy)thiophene-2-carboxamide]"
13,4 nM,"Cc1nc(O[C@H]2CC[C@@H](N(C)C)CC2)c(C(=O)N[C@@H]2CCCN(c3cc(-c4ccc(=O)n(CC(F)(F)F)n4)n4ncnc(N)c34)C2)s1 [Example 973, N—((R)-1-(4-amino-7-(6-oxo-1-(2,2,2-trifluoroethyl)-1,6-dihydropyridazin-3-yl)pyrrolo[2,1-f][1,2,4]triazin-5-yl)piperidin-3-yl)-4-(((1s,4S)-4-(dimethylamino)cyclohexyl)oxy)-2-methylthiazole-5-carboxamide]"
14,7 nM,"CN1[C@@H]2CC[C@H]1C[C@H](Oc1cc(Cl)sc1C(=O)N[C@@H]1CCCN(c3cc(-c4ccnn4C)n4ncnc(N)c34)C1)C2 [Example 975, N—((R)-1-(4-amino-7-(1-methyl-1H-pyrazol-5-yl)pyrrolo[2,1-f][1,2,4]triazin-5-yl)piperidin-3-yl)-5-chloro-3-(((1R,3s,5S)-8-methyl-8-azabicyclo[3.2.1]octan-3-yl)oxy)thiophene-2-carboxamide]"
15,1 nM,"CN1[C@@H]2CC[C@H]1C[C@H](Oc1cc(Cl)sc1C(=O)N[C@@H]1CCCN(c3c(F)c(C4=CCOC4)n4ncnc(N)c34)C1)C2 [Example 976, N—((R)-1-(4-amino-7-(2,5-dihydrofuran-3-yl)-6-fluoropyrrolo[2,1-f][1,2,4]triazin-5-yl)piperidin-3-yl)-5-chloro-3-(((1R,3s,5S)-8-methyl-8-azabicyclo[3.2.1]octan-3-yl)oxy)thiophene-2-carboxamide]"
16,1 nM,"Cc1nc(O[C@H]2CC[C@@H](NC(C)C)CC2)c(C(=O)N[C@@H]2CCCN(c3cc(C4=CC(=O)OC4)n4ncnc(N)c34)C2)s1 [Example 977, N—((R)-1-(4-amino-7-(5-oxo-2,5-dihydrofuran-3-yl)pyrrolo[2,1-f][1,2,4]triazin-5-yl)piperidin-3-yl)-4-(((1s,4S)-4-(isopropylamino)cyclohexyl)oxy)-2-methylthiazole-5-carboxamide]"
17,3 nM,"Cc1nc(O[C@H]2CC[C@@H](NCC(C)(C)O)CC2)c(C(=O)N[C@@H]2CCCN(c3cc(-c4ccc(C(N)=O)c(F)c4)n4ncnc(N)c34)C2)s1 [Example 978, N—((R)-1-(4-Amino-7-(4-carbamoyl-3-fluorophenyl)pyrrolo[2,1-f][1,2,4]triazin-5-yl)piperidin-3-yl)-4-(((1s,4S)-4-((2-hydroxy-2-methylpropyl)amino)cyclohexyl)oxy)-2-methylthiazole-5-carboxamide]"
18,4 nM,"Cc1nc(O[C@H]2CC[C@@H](NCCC#N)CC2)c(C(=O)N[C@@H]2CCCN(c3cc(-c4ccc(C(N)=O)c(F)c4)n4ncnc(N)c34)C2)s1 [Example 979, N—((R)-1-(4-Amino-7-(4-carbamoyl-3-fluorophenyl)pyrrolo[2,1-f][1,2,4]triazin-5-yl)piperidin-3-yl)-4-(((1s,4S)-4-((2-cyanoethyl)amino)cyclohexyl)oxy)-2-methylthiazole-5-carboxamide]"
19,1 nM,"Cc1nc(O[C@H]2CC[C@@H](NC3CCOC3)CC2)c(C(=O)N[C@@H]2CCCN(c3cc(-c4ccc(=O)n(CC(F)F)n4)n4ncnc(N)c34)C2)s1 (stereo partly drawn) [Example 980, N—((R)-1-(4-Amino-7-(1-(2,2-difluoroethyl)-6-oxo-1,6-dihydropyridazin-3-yl)pyrrolo[2,1-f][1,2,4]triazin-5-yl)piperidin-3-yl)-2-methyl-4-(((1s,4S)-4-((tetrahydrofuran-3-yl)amino)cyclohexyl)oxy)thiazole-5-carboxamide]"
20,6 nM,CCN1CCC(Oc2nc(C)sc2C(=O)N[C@@H]2CCCN(c3cc(-c4ccc(C(N)=O)c(F)c4)n4ncnc(N)c34)C2)CC12CCC2 (some centres unmarked) [Example 982]
